Consider one compound from paper PMC8741257, “Identification of novel non-toxic and anti-angiogenic α-fluorinated chalcones as potent colchicine binding site inhibitors” (Journal of Enzyme Inhibition and Medicinal Chemistry, 2022).

Each structure is given as a SMILES string.

Assay [1] deals with A549 (human non-small cell lung cancer). Kind of assay: Antiproliferative activity (SRB assay). The format is cell-based. Conditions: mean ± SD, three separated experiments, 72 h. How it is done: (§1) MCF-7, MGC-803, Hela and HepG-2 cell lines were cultured in a base medium (90% DMEM and 10% FBS), A549 and U937 were cultured in a base medium (90% PRMI-1640 and 10% FBS) at 37 °C, 5% CO2 and a saturated humidity atmosphere. All the mediums were supplemented with 10% FBS and 1% […]/streptomycin (all cells were purchased from Shanghai Institutes for Biological Sciences, Chinese Academy of Sciences, Shanghai, China).
(§2) A549, MGC-803, MCF-7, HepG2 and Hela cells were seeded at the appropriate cell line density (3 × 10^3 to 4 × 10^3 cells/well). The cells were then incubated at 37 °C for 24 h in a humidified 5%CO2 in 96-well plates prior to experiments. After a further 72 h of incubation, cell proliferation was quantified with SRB ([…]) to determine the number of surviving cells. The absorbance at 560 nm was measured by microplate. The experiment was repeated three times, and the data were listed in the form of mean and standard deviation.
A general note: The SRB assay estimates cell density from bound dye.

Assay [2] concerns Hela (human cervical cancer cells). The assay is described as follows: Antiproliferative activity (SRB assay). The format is cell-based. Conditions: mean ± SD, three separated experiments, 72 h. How it is done:
as §1, §2

Assay [3] has as its system HepG2 (human liver cancer cells). The assay is described as follows: Antiproliferative activity (SRB assay). In kind it is cell-based. The following applies: mean ± SD, three separated experiments, 72 h. How it is done: as §1, §2
The test system of assay [4] is MCF-7 (human breast cancer cells). Kind of assay: Antiproliferative activity (SRB assay). The format is cell-based. Conditions: MCF7, mean ± SD, three separated experiments, 72 h. How it is done:
as §1, §2

In assay [5] the test system is U937 (human leukaemia cells). Kind of assay: Antiproliferative activity (CCK-8 assay). In kind it is cell-based. The following applies: U-937, mean ± SD, three separated experiments, 72 h. How it is done: as §1
MGC-803 cells were collected and seeded into 96 well plates at a density of 8000/well. The mediums containing drugs and cell suspension were added into the well. The cells were incubated in 5% CO2 incubator at 37 °C for 72 h. Each well was added 10 µL CCK8 solution, and the incubation time was 3–4 h. The absorbance value at 450 nm was measured by microplate reader. Data are calculated with GraphPad Prism5 software.

The test system of assay [6] is human normal cells (LO2, 293T, macrophage) versus MGC-803. Kind of assay: Selectivity of growth inhibition, human normal cells versus MGC-803. The format is cell-based. How it is done: The effect of compound 4c on three types of normal human cell lines including LO2 (human hepatocyte cells), 293 T (human embryonic kidney cell) and THP-1-derived macrophages was then determined.

Assay [7] concerns microtubule network of MGC-803 cells. Kind of assay: Immunofluorescent staining of the cellular microtubule network. In kind it is cell-based, human. Conditions: 18, 36, and 72 nM. How it is done: Since tubulin-microtubule system plays a crucial role in mechanical solidity, cell motility and mitosis, an immunofluorescent staining assay was further carried out in MGC-803 cells to evaluate the inhibitory effects of 4c on microtubule cytoskeleton. […] Upon treatment with higher concentrations of 4c, the dispersed tubulin dimers were even more obvious and there is no tubular structure left.
MGC-803 cells (3 × 10^4 cells/well) were seeded into 6 well-plates and then treated with vehicle control 0.1% DMSO and 4c (18, 36, 72nΜ). The cells were rinsed twice with PBS and fixed by 4% paraformaldehyde for 20 min. Subsequently, microtubule detection was performed using a fluorescent antibody against α-tubulin in 5% BSA and incubated for 5 ∼ 6 h at room temperature. To stain cell nucleus, crystals were incubated with Hoechst for 10 min. After washing with PBST to remove redundant stain, the samples were visualised under an Olympus laser scanning confocal microscope.

For assay [8], the system named is MGC-803 cells. The assay is described as follows: Cell cycle distribution (PI, flow cytometry). In kind it is cell-based, human. The text has this: Most inhibitors of microtubule polymerisation are able to block mitosis in G2/M phase, which ultimately leads to apoptosis by disrupting tubulin-microtubule balance. To elucidate whether the cytotoxicity of 4c was due to cell cycle arrest, flow cytometry analysis and PI marking method were used to evaluate the effects of 4c on the MGC-803 cell cycle distribution. […] A significant difference was also observed when we further evaluated its effects using different time points (Figure 5(C,D)). MGC-803 cells treated with 4c (36 nM) can be arrested in the G2/M phase from 30.37% at 6 h to 45.37% at 24 h.
MGC-803 cells (15 × 10^4 cells/well) were inoculated in 6-well plates and incubated at 37 °C for 24 h, and then treated with 4c (18, 36, 72nΜ). The collected cells were washed with cold PBS and then fixed in 75% ethanol in PBS at −20 °C overnight. The cells were then washed twice with PBS buffer and then stained with 500 μL of […] (PI, 5 mg) staining solution […] for 15 min in the dark. Samples were immediately assayed for DNA content using a flow cytometer (Becton, Dickinson and Company, USA). The percentage of cell cycle phases was analysed by the software provided in the instrument.
Background: A flow cytometer gives signals particle by particle.

In assay [9] the test system is MMP of MGC-803 cells. Kind of assay: Mitochondrial membrane potential (JC-1, flow cytometry). The format is cell-based, human. Conditions: 72 nM, 48 h. How it is done: There is a close relationship between mitochondria and apoptosis, and a decrease in mitochondrial membrane potential is one of the irreversible events that occur early in apoptosis cells. Therefore, effect of compound 4c on MMP of MGC-803 cells was examined by cationic JC-1 staining method and flow cytometry.
The cultured cells were spread in 6-well plates with about 1.5 × 10^5 cells per well and incubated overnight at 37 °C. Different concentrations of the 4c were added to the wells, and the incubation was continued for 48 h. The wells were washed twice with JC-1 staining buffer (1×) after resuspension with an appropriate amount of JC-1 staining buffer (1×), flow cytometry assays were performed according to standard procedures

For assay [10], the system named is ROS in MGC-803 cells. Kind of assay: Intracellular ROS generation (DCFH-DA, flow cytometry). The format is cell-based, human. Conditions: 72 nM, 48 h, control 0.17%. How it is done:
It is now generally accepted that mitochondrial dysfunction is the main source of elevated ROS levels, accompanied by changes in mitochondrial membrane potential and activation of downstream Caspases. To further evaluate the alterations of intracellular ROS levels after cells exposed to 4c, flow cytometry was analysed with 2′,7′-Dichlorodihydrofluorescein diacetate (DCFH-DA) as fluorescent probe. As shown in Figure 7(B), 4c induced intracellular ROS generation in a dose-dependent manner. […] According to above-mentioned results, we can deduce that 4c induced cell apoptosis through a variety of ways including the disruption of the mitochondrial membrane potential, accumulation of intracellular ROS level and regulation of apoptosis-related proteins expression in cancer cells.
Load the probe and dilute DCFH-DA with serum-free culture medium at 1:1000 to a final concentration of […]. Spread the cultured cells in a 6-well plate with about 1.5 × 10^5 cells per well and incubate overnight at 37 °C. After 48 h of incubation with 4c (18, 36, 72nΜ) the cell culture medium was removed and diluted DCFH-DA was added and incubated for 20 min at 37 °C in an incubator, and the mixture was inverted every 3–5 min. […] Add 200 μL of PBS for resuspension, place on ice, and subsequently assay by flow cytometry using standard procedures.

With `COc1cc(C(=O)/C(F)=C/c2c[nH]c3cc(Br)ccc23)cc(OC)c1OC` [4c, (Z)-3–(6-bromo-1H-indol-3-yl)-2-fluoro-1–(3,4,5-trimethoxyphenyl)prop-2-en-1-one], the half-maximal inhibitory concentration (IC50) (usually the midpoint of a concentration-inhibition curve) was 202 ± 12 nM in assay [1]; 25 ± 1 nM in assay [2]; > 5000 nM in assay [3]; 254 ± 37 nM in assay [4]; 25 ± 1 nM in [5]. In assay [6], the “selectivity ratio towards MGC-803 cells and macrophage cells” value is “up to 21.2 folds”. In addition, the “Effect on cellular microtubule network” value in [7] is “remarkable disruption of microtubule reticular network”. The “percentage of cells in G2/M” value in [8] (18 nM, control 32.15%) is reported as 50.47%; in assay [8] (36 nM, 6 h), 30.37%; in assay [8] (36 nM, control 32.15%), 83.65%; in [8] (72 nM, control 32.15%), 90.21%. Also, the “JC-1 green fluorescence intensity (lower gate)” value in [9] (control 7.13) was determined as 55.6%. Also, the “JC-1 red fluorescence intensity (upper gate)” value in assay [9] (control 92.4) worked out at 41.3%. Besides, in assay [10], the “FITC-A+ (ratio of DCF positive cells)” value was 93.6%.
